The results in this text go back to patent EP4786459A1, “BENZENE RING-CONTAINING COMPOUND HAVING ANALGESIC EFFECT, PREPARATION METHOD THEREFOR, AND USE THEREOF” (West China Hospital, Sichuan University, priority 2023, dated 2025).

For one data set, the system named is rats. Put plainly: Loss of tail withdrawal reflex (LOTWR) in rats, single intravenous injection, dose escalation: potent analgesic effect and severe adverse reactions. It counts as in vivo, SD rats. Conditions: Rattus norvegicus, single intravenous injection (tail vein), LOTWR lasting for 30 seconds as criterion, class symbol, read-out: The minimum effective dose. The protocol:
(§1) Using the loss of tail withdrawal reflex (LOTWR) in rats as an indicator, the potent analgesic effect of the compounds according to the present invention was evaluated.
(§2) 1.1 Experimental animals: Adult male SD rats weighing between 220-300 g were selected for the experiment. The rats were housed in sawdust-bedded cages with a temperature of 25±1°C, humidity ranging from 40% to 60%, and a 12-hour light/12-hour dark cycle. Each cage contained no more than 5 rats, with free access to water and food.
(§3) • (1) The compound of the present invention, along with the positive control drug remifentanil and the negative control (vehicle), were administered in fixed volumes. A dose escalation approach was employed to determine the minimum effective dose at which the compound of the present invention produces potent analgesic effects, as well as the minimum dose at which severe adverse reactions first appear. • (2) LOTWR lasting for 30 seconds was used as the criterion for generating potent analgesic effects. During the experiment, drugs were administered via the tail vein of rats, with a dosage volume of 0.6 mL per rat and a dosage rate of 0.02 mL/s. Subsequently, an alligator clip was applied at a distance of 1 cm from the base of the rat's tail, clamping once longitudinally and once transversely before being left in place. Meanwhile, the distal end of the alligator clip was continuously oscillated (30 times/min) to continuously generate stimulation. […] When all results were "no LOTWR" after 10 minutes of testing (5 trials), the test was stopped and recorded as "ineffective." • (3) All compounds would undergo a dose escalation for efficacy evaluation, starting from 1 mg/kg (due to the high potency of remifentanil, the lowest dose was set at 1 µg/kg), followed by 5 mg/kg, 10 mg/kg, 20 mg/kg, and so on (increasing by 20 mg/kg increments after 20 mg/kg). The dose escalation would be stopped when rats show signs of death, and the lowest effective dose and the lowest dose at which severe adverse reactions occur would be recorded throughout the process. In this study, severe adverse reactions are defined as apnea, generalized tonic rigidity, convulsions, opisthotonus, seizures, etc.
(§4) 1.3 Evaluation indicators: the minimum effective dose; the minimum dose resulting in serious adverse reactions; the safety therapeutic index = "the minimum dose resulting in serious adverse reactions" / "the minimum effective dose".

Experiment in data set [1]: as above
The data set is classed as in vivo, SD rats. The note with it: rat, in vivo, single intravenous injection, minimum dose resulting in serious adverse reactions / minimum effective dose, class symbol, read-out: The safety therapeutic index. The protocol: as §1, §2, §3, §4

In the case of `Cc1ccc(CNC(=N)NCc2ccnn2C)c(N(C)C)c1` [Example 111], the minimal effective dose in the data set with rats is not above 10 mg/kg. Also, the selectivity ratio in data set [1] is not above 2.

Take `Cc1ccc(CNC(=O)NCc2ccnn2C)cc1N(C)C` [Example 112]: the minimal effective dose in the data set on rats is not above 10 mg/kg. Moreover, the selectivity ratio in data set [1] was more than 4.

As for `Cc1cc(CNC(=O)NCc2ccc(C)c(N(C)C)c2)n(C)n1` [Example 113], the minimal effective dose with rats lay within 10 to 20 mg/kg. In addition, in data set [1], the selectivity ratio was more than 4.

Regarding `CCCCc1ccc(CNC(=S)Nc2cccs2)c(N(C)C)c1` [Example 114], in the data set with rats, the minimal effective dose was not above 10 mg/kg. The selectivity ratio in data set [1] fell in the range of 2 to 4.

In the case of `Cc1cc(CNC(=S)NCc2ccc(C)c(N(C)C)c2)n(C)n1` [Example 115], the minimal effective dose in the data set with rats was not above 10 mg/kg. Moreover, in data set [1], the selectivity ratio was more than 4.

As to `Cc1ccc(CNC(=S)NCc2ccnn2C)cc1N(C)C` [Example 116], the minimal effective dose with rats is not above 10 mg/kg. In data set [1], the selectivity ratio is 2 to 4.

For the molecule `Cc1ccc(CNC(=O)NCc2cc(C)nn2C)c(N(C)C)c1` [Example 117], the minimal effective dose with rats is more than 30 mg/kg. In data set [1], the selectivity ratio was in the range of 2 to 4.

For `CN(C)c1cc(C(C)(C)C)ccc1CNC(=S)NCc1cccs1` [Example 118], the minimal effective dose in the data set on rats was not above 10 mg/kg. In addition, the selectivity ratio in data set [1] is not above 2.

With `CN(C)c1cc(C2CC2)ccc1CNC(=S)NCc1cccs1` [Example 119], in the data set on rats, the minimal effective dose is not above 10 mg/kg. Moreover, in data set [1], the selectivity ratio is not above 2.

For the molecule `CCCCc1ccc(CNC(=O)NCc2ccco2)cc1N(C)C` [Example 120], in the data set with rats, the minimal effective dose is not above 10 mg/kg. Also, the selectivity ratio in data set [1] is more than 4.

`Cc1ccc(CSC(=S)OCc2ccsc2)c(N(C)C)c1` [Example 121]: the minimal effective dose with rats is more than 30 mg/kg. In addition, in data set [1], the selectivity ratio fell in the range of 2 to 4.

For `Cc1ccc(NC(=S)NCc2cccs2)c(N(C)C)c1` [Example 122], the minimal effective dose with rats is not above 10 mg/kg. Besides, the selectivity ratio in data set [1] was more than 4.
